Source: patent publication US12459890B2, “Salt and crystal form of compound having agonistic activity to S1P5 receptor” (ONO PHARMACEUTICAL CO., LTD., priority 2019, dated 2025)

What was measured:
[1] = Chemical stability test (residual rate by HPLC after storage); assay type: physicochemical; conditions: vs sample stored at −20° C.
Method: Stability of the salts and/or crystal forms of the present invention was studied under the storage conditions of Condition 1 or Condition 2. After storage, the residual rate (%) of the stored sample under each condition was calculated by HPLC based on the area percentage of the sample stored at −20° C.
• Condition 1 60° C.: 1 month: pulverized • Condition 2 80° C.: 1 week: unpulverized
Comparison object of each sample was stored at −20° C.

[2] = biological target: human S1P1 (EDG-1) (Homo sapiens, UniProt P21453); assay: S1P receptor agonist activity by monitoring intracellular calcium concentration (S1P1); assay type: cell-based; conditions: CHO cells overexpressing human S1P1, intracellular calcium, S1P = 100%
Method: (§1) Chinese hamster ovary (CHO) cells in which human S1P1 (EDG-1) or human S1P5 (EDG-8) genes were overexpressed were cultured in Ham's F-12 medium containing 10% FBS (fetal bovine serum), penicillin/streptomycin, and geneticin (0.25 mg/mL). The medium was changed one day before the calcium assay was performed and on the day of the assay. Four hours after medium exchange, medium was removed and washed once with phosphate buffered saline. 0.05% Trypsin EDTA was added thereto to exfoliate the cells, and then a medium was added to recover the cells. The collected cell suspension was centrifuged to remove the supernatant, and suspended in phosphate buffered saline to count the number of cells. The cells were suspended in a Hanks solution containing Calcium 6 Assay Reagent (manufactured by Molecular Devices), 20 mM HEPES and 2.5 mM Probenecid so as to be 1.1×10^6 cells/mL, and incubated at 37° C. for about 1 hour. Thereafter, the supernatant was removed by centrifugation, and the cells were suspended in a Hanks solution containing 20 mM HEPES, 2.5 mM Probenecid and 0.1% BSA so as to be 2.2×10^6 cells/mL. The suspension was seeded in a 96 well plate at 80 μL/well. A plate was set in a fluorescent drug screening system (FDSS6000), Compound I or a comparative compound, and S1P were sequentially added, and an increase in intracellular calcium concentration before and after addition was measured at an excitation wavelength of 480 nm and a fluorescence wavelength of 540 nm. The increase in intracellular calcium concentration was evaluated by signal intensity at a fluorescence wavelength, and the agonist activity of each compound was calculated with the signal intensity when S1P was added instead of the compound as 100% activity.

[3] = biological target: human S1P5 (EDG-8) (Homo sapiens, UniProt Q9H228); assay: S1P receptor agonist activity by monitoring intracellular calcium concentration (S1P5); assay type: cell-based; conditions: for S1P5 receptor agonist activity: CHO cells overexpressing human S1P5, intracellular calcium, S1P = 100%; for balance of S1P5 receptor agonist activity with respect to S1P1 receptor (selectivity): comparison of agonist activities on S1P1 and S1P5
Method: as §1

[4] = Measurement of clearance in rats; assay type: in vivo, rat; conditions: male SD rats, fasted, tail-intravenous administration, plasma
Method: A solution of Compound I was tail-intravenously administered to male SD rats under fasted conditions. After administration, rats were retained by a manual method at regular time intervals, and blood was collected from the jugular vein with sodium heparin.
The blood was centrifuged at 10,000 g, 3 min, 4° C. to obtain plasma. Concentration of Compound I in the plasma was measured by LC/MS/MS. Clearance was calculated from the plasma concentration transition using pharmacokinetic analysis software Phoenix WinNonlin (Certara USA, Inc.).

[5] = test system: mouse experimental autoimmune encephalomyelitis model; assay: Effectiveness in mouse experimental autoimmune encephalomyelitis model; assay type: in vivo; conditions: female C57BL/J mice, MOG35-55 immunization, oral once a day for 30 days
Method: Female C57BL/J mice (Charles River Laboratories Japan, Inc., age at start of experiment: 7 or 8 weeks of age) were used. Myelin Oligodendrocyte Glycoprotein [sequence 35-55 […] (AnaSpec, Inc., hereinafter MOG35-55)] was dissolved in physiological saline (Otsuka Pharmaceutical Factory, Inc.) to prepare a 2 mg/mL solution. The 2 mg/mL solution of MOG35-55 and an equal amount of FCA H37Ra (Difco Laboratories) were mixed to prepare an emulsion, and the emulsion was used as an inducing agent. Immunization was performed by subcutaneously administering 0.2 mL of the inducing agent into the mouse flank using a glass syringe equipped with a 26G injection needle. […]
After dividing into groups, administration of a test substance (Compound I), a positive control compound (FTY720; fingolimod), or a vehicle (water for injection) was started on the same day, and each test substance was repetitively orally administered once a day for 30 days from the day before the immunization to day 28 of immunization. The amount of the solution to be administered was calculated based on the individual body weight on the day of administration. […]

[6] = Condition 2: 80° C.: 1 week: unpulverized
[7] = Condition 1: 60° C.: 1 month: pulverized

human S1P1 (EDG-1), sequence (P21453 whole entry): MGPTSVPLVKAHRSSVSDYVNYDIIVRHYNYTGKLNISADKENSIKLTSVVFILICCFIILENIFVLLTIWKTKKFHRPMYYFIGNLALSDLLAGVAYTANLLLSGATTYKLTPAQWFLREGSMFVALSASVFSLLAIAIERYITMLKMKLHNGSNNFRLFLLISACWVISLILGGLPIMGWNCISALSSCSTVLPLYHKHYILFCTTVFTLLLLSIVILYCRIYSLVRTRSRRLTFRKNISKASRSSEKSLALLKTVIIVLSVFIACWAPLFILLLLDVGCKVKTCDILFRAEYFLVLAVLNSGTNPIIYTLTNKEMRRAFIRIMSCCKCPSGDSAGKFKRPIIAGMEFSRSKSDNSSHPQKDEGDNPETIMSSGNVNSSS
human S1P5 (EDG-8), sequence (Q9H228 whole entry): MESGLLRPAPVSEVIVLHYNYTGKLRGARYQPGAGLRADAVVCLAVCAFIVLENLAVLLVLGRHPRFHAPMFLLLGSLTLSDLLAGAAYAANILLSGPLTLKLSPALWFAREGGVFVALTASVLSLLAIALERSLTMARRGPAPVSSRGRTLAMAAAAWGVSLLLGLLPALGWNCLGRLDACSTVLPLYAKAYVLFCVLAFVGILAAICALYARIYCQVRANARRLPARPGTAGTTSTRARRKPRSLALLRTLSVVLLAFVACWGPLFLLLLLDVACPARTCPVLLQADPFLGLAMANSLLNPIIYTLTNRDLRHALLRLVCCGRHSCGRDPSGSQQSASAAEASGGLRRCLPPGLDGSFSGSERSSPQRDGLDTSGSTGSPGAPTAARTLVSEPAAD

C[C@H]1Cc2cc(OCCCC(F)(F)F)ccc2C=C1CN1CC(C(=O)O)C1.C[C@H]1Cc2cc(OCCCC(F)(F)F)ccc2C=C1CN1CC(C(=O)O)C1.O=C(O)CCCCC(=O)O [Example 16, hemiadipate of 1-[[(3S)-3-methyl-6-(4,4,4-trifluorobutoxy)-3,4-dihydronaphthalen-2-yl]methyl]azetidine-3-carboxylic acid]
Residual rate (%) [1, 6]: 95.8%

C[C@H]1Cc2cc(OCCCC(F)(F)F)ccc2C=C1CN1CC(C(=O)O)C1.C[C@H]1Cc2cc(OCCCC(F)(F)F)ccc2C=C1CN1CC(C(=O)O)C1.O=S(=O)(O)O [Example 13, hemisulfate of 1-[[(3S)-3-methyl-6-(4,4,4-trifluorobutoxy)-3,4-dihydronaphthalen-2-yl]methyl]azetidine-3-carboxylic acid]
Residual rate (%) [1, 7]: 97.1%

C[C@H]1Cc2cc(OCCCC(F)(F)F)ccc2C=C1CN1CC(C(=O)O)C1 [Example 7, 1-[[(3S)-3-methyl-6-(4,4,4-trifluorobutoxy)-3,4-dihydronaphthalen-2-yl]methyl]azetidine-3-carboxylic acid]
Residual rate (%) [1, 7]: 99.1%

C[C@H]1Cc2cc(OCCCC(F)(F)F)ccc2C=C1CN1CC(C(=O)O)C1.N[C@@H](Cc1c[nH]c2ccccc12)C(=O)O [Example 14, mono-tryptophan salt of 1-[[(3S)-3-methyl-6-(4,4,4-trifluorobutoxy)-3,4-dihydronaphthalen-2-yl]methyl]azetidine-3-carboxylic acid]
Residual rate (%) [1, 7]: 99.1% | Residual rate (%) [1, 6]: 99.6%

COc1ccc2c(c1)C[C@H](C)C(CN1CC(F)(C(=O)O)C1)=C2 [Comparative Example, (S)-3-Fluoro-1-[(6-methoxy-3-methyl-3,4-dihydronaphthalen-2-yl)methyl]azetidine-3-carboxylic acid]
S1P1 receptor agonist activity [2]: did not have S1P1 and S1P5 receptor agonist activities | S1P5 receptor agonist activity [3]: did not have S1P1 and S1P5 receptor agonist activities

C[C@H]1Cc2cc(OCCCC(F)(F)F)ccc2C=C1CN1CC(C(=O)O)C1.O=C(O)c1ccccc1 [Example 9, monobenzoate of 1-[[(3S)-3-methyl-6-(4,4,4-trifluorobutoxy)-3,4-dihydronaphthalen-2-yl]methyl]azetidine-3-carboxylic acid]
Residual rate (%) [1, 7]: 97.9%

C[C@H]1Cc2cc(OCCCC(F)(F)F)ccc2C=C1CN1CC(C(=O)O)C1.O [Example 8, hydrate of 1-[[(3S)-3-methyl-6-(4,4,4-trifluorobutoxy)-3,4-dihydronaphthalen-2-yl]methyl]azetidine-3-carboxylic acid]
Residual rate (%) [1, 7]: 97.8%

C[C@H]1Cc2cc(OCCCC(F)(F)F)ccc2C=C1CN1CC(C(=O)O)C1.C[C@H]1Cc2cc(OCCCC(F)(F)F)ccc2C=C1CN1CC(C(=O)O)C1.O=C(O)CCC(=O)O [Example 15, hemisuccinate of 1-[[(3S)-3-methyl-6-(4,4,4-trifluorobutoxy)-3,4-dihydronaphthalen-2-yl]methyl]azetidine-3-carboxylic acid]
Residual rate (%) [1, 6]: 99.1%

C[C@H]1Cc2cc(OCCCC(F)(F)F)ccc2C=C1CN1CC(C(=O)O)C1.O=C(O)c1ccc(O)cc1 [Example 10, mono(4-hydroxybenzoate) of 1-[[(3S)-3-methyl-6-(4,4,4-trifluorobutoxy)-3,4-dihydronaphthalen-2-yl]methyl]azetidine-3-carboxylic acid]
Residual rate (%) [1, 7]: 99.4% | Residual rate (%) [1, 6]: 99.6%

C[C@H]1Cc2cc(OCCCC(F)(F)F)ccc2C=C1CN1CC(C(=O)O)C1.O.O=C(O)c1ccc(O)cc1 [Example 12, hydrate of mono(4-hydroxybenzoate) of 1-[[(3S)-3-methyl-6-(4,4,4-trifluorobutoxy)-3,4-dihydronaphthalen-2-yl]methyl]azetidine-3-carboxylic acid]
Residual rate (%) [1, 7]: 95.3%

CCCc1ccc(COc2ccc3c(c2)CCC(CN2CC(C(=O)O)C2)=C3C)c(OC)c1 [Comparative Compound B, 1-({6-[(2-methoxy-4-propylbenzyl)oxy]-1-methyl-3,4-dihydro-2-naphthalenyl}methyl)-3-azetidine carboxylic acid]
S1P1 receptor agonist activity [2]: had both S1P1 and S1P5 receptor agonist activities | S1P5 receptor agonist activity [3]: had both S1P1 and S1P5 receptor agonist activities | balance of S1P5 receptor agonist activity with respect to S1P1 receptor (selectivity) [3]: S1P1 receptor agonist activity being stronger than S1P5 receptor agonist activity

C[C@H]1Cc2cc(OCCCC(F)(F)F)ccc2C=C1CN1CC(C(=O)O)C1 [Compound I, 1-[[(3S)-3-Methyl-6-(4,4,4-trifluorobutoxy)-3,4-dihydronaphthalen-2-yl]methyl]azetidine-3-carboxylic acid]
balance of S1P5 receptor agonist activity with respect to S1P1 receptor (selectivity) [3]: selective agonist activity on the S1P5 receptor | Clearance [4]: low clearance | effectiveness in EAE model (neurological symptom score) [5]: shows effectiveness

CCCCCCCCOc1ccc2c(c1)CCC(CN1CC(C(=O)O)C1)=C2C.Cl [Comparative Compound A, 1-{[1-methyl-6-(octyloxy)-3,4-dihydro-2-naphthalenyl]methyl}-3-azetidine carboxylic acid hydrochloride]
S1P1 receptor agonist activity [2]: had both S1P1 and S1P5 receptor agonist activities | S1P5 receptor agonist activity [3]: had both S1P1 and S1P5 receptor agonist activities | balance of S1P5 receptor agonist activity with respect to S1P1 receptor (selectivity) [3]: S1P1 receptor agonist activity being stronger than S1P5 receptor agonist activity
